Legend:
MLK1 = biological target: T1, MLK1 (Homo sapiens, UniProt P80192); experiment: Kinase profiling; format: binding; conditions: read-out: % Ctrl @ 1000 nM
T1 construct: T7 phage fusion (stated for most kinases of the panel only); made in house; host or cells: T7 phage in E. coli (BL21-derived) or HEK-293 cells

CLK3 = CLK3 (Homo sapiens, UniProt P49761); experiment: Kinase profiling; format: binding; conditions: read-out: % Ctrl @ 1000 nM
PIK4CB = PIK4CB (Homo sapiens, UniProt Q9UBF8); experiment: Kinase profiling; format: binding; conditions: read-out: % Ctrl @ 1000 nM
PLK1 = PLK1 (Homo sapiens, UniProt P53350); experiment: Kinase profiling; format: binding; conditions: read-out: % Ctrl @ 1000 nM
PFTK1 = PFTK1 (Homo sapiens, UniProt O94921); experiment: Kinase profiling; format: binding; conditions: read-out: % Ctrl @ 1000 nM
[1] = biological target: RPS6KA4 (Kin.Dom.2-C-terminal) (Homo sapiens, UniProt O75676); experiment: Kinase profiling; format: binding; conditions: read-out: % Ctrl @ 1000 nM
AMPK-alpha1 = AMPK-alpha1 (Homo sapiens, UniProt Q13131); experiment: Kinase profiling; format: binding; conditions: read-out: % Ctrl @ 1000 nM
[2] = biological target: EGFR (L747-S752del, P753S) (Homo sapiens, UniProt P00533, DEL747-752/P753S); experiment: Kinase profiling; format: binding; conditions: read-out: % Ctrl @ 1000 nM
SIK2 = SIK2 (Homo sapiens, UniProt Q9H0K1); experiment: Kinase profiling; format: binding; conditions: read-out: % Ctrl @ 1000 nM
ABL2 = ABL2 (Homo sapiens, UniProt P42684); experiment: Kinase profiling; format: binding; conditions: read-out: % Ctrl @ 1000 nM
NEK5 = biological target: T2, NEK5 (Homo sapiens, UniProt Q6P3R8); experiment: Kinase profiling; format: binding; conditions: read-out: % Ctrl @ 1000 nM
T2 construct: T7 phage fusion (said for most assays); made in house

PRKG2 = PRKG2 (Homo sapiens, UniProt Q13237); experiment: Kinase profiling; format: binding; conditions: read-out: % Ctrl @ 1000 nM
EGFR (T790M) = EGFR (T790M) (Homo sapiens, UniProt P00533, T790M); experiment: Kinase profiling; format: binding; conditions: read-out: % Ctrl @ 1000 nM
[3] = biological target: RSK3 (Kin.Dom.2-C-terminal) (Homo sapiens, UniProt Q15349); experiment: Kinase profiling; format: binding; conditions: read-out: % Ctrl @ 1000 nM
[4] = biological target: RPS6KA4 (Kin.Dom.1-N-terminal) (Homo sapiens, UniProt O75676); experiment: Kinase profiling; format: binding; conditions: read-out: % Ctrl @ 1000 nM
GRK7 = GRK7 (Homo sapiens, UniProt Q8WTQ7); experiment: Kinase profiling; format: binding; conditions: read-out: % Ctrl @ 1000 nM
p38-delta = p38-delta (Homo sapiens, UniProt O15264); experiment: Kinase profiling; format: binding; conditions: read-out: % Ctrl @ 1000 nM
TTK = TTK (Homo sapiens, UniProt P33981); experiment: Kinase profiling; format: binding; conditions: read-out: % Ctrl @ 1000 nM
EIF2AK1 = EIF2AK1 (Homo sapiens, UniProt Q9BQI3); experiment: Kinase profiling; format: binding; conditions: read-out: % Ctrl @ 1000 nM
KIT-autoinhibited = KIT-autoinhibited (Homo sapiens, UniProt P10721); experiment: Kinase profiling; format: binding; conditions: read-out: % Ctrl @ 1000 nM
LYN = LYN (Homo sapiens, UniProt P07948); experiment: Kinase profiling; format: binding; conditions: read-out: % Ctrl @ 1000 nM
BRSK1 = BRSK1 (Homo sapiens, UniProt Q8TDC3); experiment: Kinase profiling; format: binding; conditions: read-out: % Ctrl @ 1000 nM
SBK1 = SBK1 (Homo sapiens, UniProt Q52WX2); experiment: Kinase profiling; format: binding; conditions: read-out: % Ctrl @ 1000 nM
ZAK = ZAK (Homo sapiens, UniProt Q9NYL2); experiment: Kinase profiling; format: binding; conditions: read-out: % Ctrl @ 1000 nM
SRC = SRC (Homo sapiens, UniProt P12931); experiment: Kinase profiling; format: binding; conditions: read-out: % Ctrl @ 1000 nM
MARK1 = MARK1 (Homo sapiens, UniProt Q9P0L2); experiment: Kinase profiling; format: binding; conditions: read-out: % Ctrl @ 1000 nM
HIPK2 = HIPK2 (Homo sapiens, UniProt Q9H2X6); experiment: Kinase profiling; format: binding; conditions: read-out: % Ctrl @ 1000 nM
CTK = CTK (Homo sapiens, UniProt P42679); experiment: Kinase profiling; format: binding; conditions: read-out: % Ctrl @ 1000 nM
[5] = test system: CD4 (T cell surface marker); experiment: CD4 IHC test in MC-38 tumor; format: in vivo, mouse; conditions: MC-38 tumors; vs vehicle group
Method: MC38 tumor tissues were collected at the end of the in vivo efficacy trial. The tumor tissue was then embedded in paraffin. The expression of CD3/CD4/CD8/F4-80 were tested by immunohistochemistry stain.

VRK2 = VRK2 (Homo sapiens, UniProt Q86Y07); experiment: Kinase profiling; format: binding; conditions: read-out: % Ctrl @ 1000 nM
ADCK4 = ADCK4 (Homo sapiens, UniProt Q96D53); experiment: Kinase profiling; format: binding; conditions: read-out: % Ctrl @ 1000 nM
MELK = biological target: T3, MELK (Homo sapiens, UniProt Q14680); experiment: Kinase profiling; format: binding; conditions: read-out: % Ctrl @ 1000 nM
T3 construct: T7 phage fusion (stated for most kinases of the panel only); made in house; host or cells: T7 phage in E. coli (BL21-derived) or HEK-293 cells

BUB1 = BUB1 (Homo sapiens, UniProt O43683); experiment: Kinase profiling; format: binding; conditions: read-out: % Ctrl @ 1000 nM
MKNK1 = biological target: T4, MKNK1 (Homo sapiens, UniProt Q9BUB5); experiment: Kinase profiling; format: binding; conditions: read-out: % Ctrl @ 1000 nM
T4 construct: T7 phage fusion (stated for most kinases of the panel only); made in house; host or cells: T7 phage in E. coli (BL21-derived) or HEK-293 cells

CSNK1G3 = CSNK1G3 (Homo sapiens, UniProt Q9Y6M4); experiment: Kinase profiling; format: binding; conditions: read-out: % Ctrl @ 1000 nM
TEC = TEC (Homo sapiens, UniProt P42680); experiment: Kinase profiling; format: binding; conditions: read-out: % Ctrl @ 1000 nM
FLT1 = FLT1 (Homo sapiens, UniProt P17948); experiment: Kinase profiling; format: binding; conditions: read-out: % Ctrl @ 1000 nM
[6] = biological target: RSK4 (Kin.Dom.2-C-terminal) (Homo sapiens, UniProt Q9UK32); experiment: Kinase profiling; format: binding; conditions: read-out: % Ctrl @ 1000 nM

Chain of BRSK1 (Q8TDC3 whole entry): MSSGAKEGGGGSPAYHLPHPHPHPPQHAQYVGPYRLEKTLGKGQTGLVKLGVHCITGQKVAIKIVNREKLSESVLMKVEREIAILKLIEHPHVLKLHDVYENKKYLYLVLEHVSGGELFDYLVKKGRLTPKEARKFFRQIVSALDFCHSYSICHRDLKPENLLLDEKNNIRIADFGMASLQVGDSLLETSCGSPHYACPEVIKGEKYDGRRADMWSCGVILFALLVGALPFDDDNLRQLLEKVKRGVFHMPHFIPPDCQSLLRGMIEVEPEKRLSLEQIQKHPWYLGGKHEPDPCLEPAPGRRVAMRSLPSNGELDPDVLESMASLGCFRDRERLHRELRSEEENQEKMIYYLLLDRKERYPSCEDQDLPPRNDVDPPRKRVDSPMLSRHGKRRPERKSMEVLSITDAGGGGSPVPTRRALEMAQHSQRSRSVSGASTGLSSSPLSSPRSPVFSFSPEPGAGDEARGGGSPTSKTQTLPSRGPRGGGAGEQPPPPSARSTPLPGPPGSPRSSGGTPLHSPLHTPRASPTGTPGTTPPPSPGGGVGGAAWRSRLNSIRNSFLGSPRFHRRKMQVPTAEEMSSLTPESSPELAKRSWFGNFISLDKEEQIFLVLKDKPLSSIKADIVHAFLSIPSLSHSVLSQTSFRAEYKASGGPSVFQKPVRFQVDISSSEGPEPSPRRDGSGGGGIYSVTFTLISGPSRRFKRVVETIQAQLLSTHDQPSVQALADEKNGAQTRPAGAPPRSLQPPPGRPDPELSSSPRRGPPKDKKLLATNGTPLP
Chain of TEC (P42680 whole entry): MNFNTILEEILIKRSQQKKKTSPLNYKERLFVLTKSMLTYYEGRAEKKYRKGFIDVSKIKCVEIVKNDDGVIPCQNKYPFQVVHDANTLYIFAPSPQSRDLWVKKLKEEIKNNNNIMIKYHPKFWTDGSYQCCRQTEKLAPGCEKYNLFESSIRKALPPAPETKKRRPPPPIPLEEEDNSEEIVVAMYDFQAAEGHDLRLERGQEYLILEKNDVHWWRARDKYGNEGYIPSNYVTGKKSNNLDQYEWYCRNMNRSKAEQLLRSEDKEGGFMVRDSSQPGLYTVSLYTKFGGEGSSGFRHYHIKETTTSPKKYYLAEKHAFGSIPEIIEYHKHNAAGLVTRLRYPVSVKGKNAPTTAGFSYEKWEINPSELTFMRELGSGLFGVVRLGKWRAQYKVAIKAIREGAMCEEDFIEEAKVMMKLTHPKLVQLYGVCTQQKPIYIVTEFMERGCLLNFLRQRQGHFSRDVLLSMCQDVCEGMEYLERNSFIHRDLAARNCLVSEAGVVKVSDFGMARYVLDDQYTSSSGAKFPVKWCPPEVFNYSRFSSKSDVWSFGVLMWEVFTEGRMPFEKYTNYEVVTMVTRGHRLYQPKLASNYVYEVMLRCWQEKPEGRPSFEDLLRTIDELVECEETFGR
Chain of RSK3 (Kin.Dom.2-C-terminal) (Q15349 415-672 limits assumed): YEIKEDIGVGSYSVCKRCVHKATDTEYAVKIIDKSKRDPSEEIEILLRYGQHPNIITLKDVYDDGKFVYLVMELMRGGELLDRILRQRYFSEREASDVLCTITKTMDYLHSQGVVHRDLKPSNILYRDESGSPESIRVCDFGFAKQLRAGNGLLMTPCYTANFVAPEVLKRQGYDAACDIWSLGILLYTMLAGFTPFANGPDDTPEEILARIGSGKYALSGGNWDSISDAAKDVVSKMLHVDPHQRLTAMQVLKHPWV
Chain of SIK2 (Q9H0K1 whole entry): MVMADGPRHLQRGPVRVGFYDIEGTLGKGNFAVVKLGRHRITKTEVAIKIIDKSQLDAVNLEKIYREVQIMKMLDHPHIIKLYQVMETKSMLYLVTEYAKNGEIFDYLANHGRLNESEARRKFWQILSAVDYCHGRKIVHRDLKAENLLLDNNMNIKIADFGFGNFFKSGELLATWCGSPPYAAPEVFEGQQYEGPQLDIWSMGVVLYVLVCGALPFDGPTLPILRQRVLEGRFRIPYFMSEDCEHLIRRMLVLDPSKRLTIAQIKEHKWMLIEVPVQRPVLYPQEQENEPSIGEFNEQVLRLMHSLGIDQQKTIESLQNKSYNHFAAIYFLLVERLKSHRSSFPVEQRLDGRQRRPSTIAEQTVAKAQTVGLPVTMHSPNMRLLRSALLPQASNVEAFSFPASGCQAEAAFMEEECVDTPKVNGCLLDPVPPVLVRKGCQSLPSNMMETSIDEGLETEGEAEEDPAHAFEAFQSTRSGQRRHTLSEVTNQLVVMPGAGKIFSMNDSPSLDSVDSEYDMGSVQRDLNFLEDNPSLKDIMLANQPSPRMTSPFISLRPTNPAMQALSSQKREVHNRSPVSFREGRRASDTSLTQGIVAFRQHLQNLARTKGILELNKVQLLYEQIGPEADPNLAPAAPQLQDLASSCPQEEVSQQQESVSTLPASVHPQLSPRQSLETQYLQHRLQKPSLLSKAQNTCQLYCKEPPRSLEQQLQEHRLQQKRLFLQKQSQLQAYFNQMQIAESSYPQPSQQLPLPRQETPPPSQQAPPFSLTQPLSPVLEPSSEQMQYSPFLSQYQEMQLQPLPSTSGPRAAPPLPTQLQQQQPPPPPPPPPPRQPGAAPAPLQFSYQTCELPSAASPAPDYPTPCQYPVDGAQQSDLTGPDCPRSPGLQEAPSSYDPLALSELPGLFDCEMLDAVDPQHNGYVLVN
Chain of PIK4CB (Q9UBF8 whole entry): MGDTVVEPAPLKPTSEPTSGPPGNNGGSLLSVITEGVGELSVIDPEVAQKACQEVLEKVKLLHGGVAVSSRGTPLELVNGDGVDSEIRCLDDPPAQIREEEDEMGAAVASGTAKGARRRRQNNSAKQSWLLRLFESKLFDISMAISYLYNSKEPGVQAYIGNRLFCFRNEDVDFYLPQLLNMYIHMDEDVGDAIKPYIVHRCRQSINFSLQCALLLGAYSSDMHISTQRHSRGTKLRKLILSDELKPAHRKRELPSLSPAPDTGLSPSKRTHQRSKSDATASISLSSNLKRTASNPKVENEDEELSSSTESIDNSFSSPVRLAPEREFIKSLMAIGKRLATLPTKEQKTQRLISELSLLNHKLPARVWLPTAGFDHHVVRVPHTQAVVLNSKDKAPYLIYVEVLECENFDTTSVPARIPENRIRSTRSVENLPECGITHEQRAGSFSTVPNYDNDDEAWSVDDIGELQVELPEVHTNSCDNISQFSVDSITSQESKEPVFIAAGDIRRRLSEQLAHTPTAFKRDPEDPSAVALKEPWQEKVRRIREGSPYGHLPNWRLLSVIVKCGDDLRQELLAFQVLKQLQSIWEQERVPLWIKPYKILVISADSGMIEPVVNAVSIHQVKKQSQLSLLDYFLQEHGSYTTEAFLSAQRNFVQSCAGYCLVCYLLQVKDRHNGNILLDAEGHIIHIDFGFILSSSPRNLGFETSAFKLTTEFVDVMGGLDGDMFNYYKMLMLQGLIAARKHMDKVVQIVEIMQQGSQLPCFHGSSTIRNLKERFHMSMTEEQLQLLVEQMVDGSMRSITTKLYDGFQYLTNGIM
Chain of LYN (P07948 whole entry): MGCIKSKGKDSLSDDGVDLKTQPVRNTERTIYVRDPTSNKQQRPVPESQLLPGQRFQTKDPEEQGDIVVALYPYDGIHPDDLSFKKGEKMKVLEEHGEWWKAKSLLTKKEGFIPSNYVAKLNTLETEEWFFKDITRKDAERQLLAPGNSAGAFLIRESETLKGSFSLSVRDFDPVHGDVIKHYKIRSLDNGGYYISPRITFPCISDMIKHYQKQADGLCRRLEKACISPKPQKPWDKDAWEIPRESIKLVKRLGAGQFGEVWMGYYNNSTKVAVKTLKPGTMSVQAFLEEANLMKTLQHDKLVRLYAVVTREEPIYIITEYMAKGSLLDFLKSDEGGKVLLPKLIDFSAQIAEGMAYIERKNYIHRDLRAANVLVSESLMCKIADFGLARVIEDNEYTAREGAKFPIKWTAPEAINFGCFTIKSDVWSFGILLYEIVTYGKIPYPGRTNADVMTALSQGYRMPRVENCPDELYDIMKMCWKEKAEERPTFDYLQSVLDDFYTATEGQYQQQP
T2 sequence (Q6P3R8 whole entry, the tested form may be a part): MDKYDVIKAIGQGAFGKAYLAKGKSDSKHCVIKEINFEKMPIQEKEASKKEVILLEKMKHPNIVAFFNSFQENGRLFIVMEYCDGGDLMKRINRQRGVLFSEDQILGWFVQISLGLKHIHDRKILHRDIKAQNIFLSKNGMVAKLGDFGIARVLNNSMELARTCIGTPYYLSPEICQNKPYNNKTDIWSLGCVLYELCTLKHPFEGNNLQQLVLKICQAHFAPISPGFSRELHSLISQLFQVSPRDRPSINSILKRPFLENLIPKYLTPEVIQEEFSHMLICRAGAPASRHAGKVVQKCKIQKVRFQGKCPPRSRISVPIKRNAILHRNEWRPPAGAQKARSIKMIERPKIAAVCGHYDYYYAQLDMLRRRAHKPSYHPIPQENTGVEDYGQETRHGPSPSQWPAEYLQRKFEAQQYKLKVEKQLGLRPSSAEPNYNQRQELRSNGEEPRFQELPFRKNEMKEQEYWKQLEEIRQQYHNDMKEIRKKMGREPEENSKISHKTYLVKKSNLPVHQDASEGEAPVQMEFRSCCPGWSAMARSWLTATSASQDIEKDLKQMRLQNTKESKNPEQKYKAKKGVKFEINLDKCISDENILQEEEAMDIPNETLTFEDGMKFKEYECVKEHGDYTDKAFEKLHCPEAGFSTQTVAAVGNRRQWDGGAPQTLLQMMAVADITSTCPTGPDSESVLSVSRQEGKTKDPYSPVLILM
Chain of RPS6KA4 (Kin.Dom.1-N-terminal) (O75676 33-301 limits assumed): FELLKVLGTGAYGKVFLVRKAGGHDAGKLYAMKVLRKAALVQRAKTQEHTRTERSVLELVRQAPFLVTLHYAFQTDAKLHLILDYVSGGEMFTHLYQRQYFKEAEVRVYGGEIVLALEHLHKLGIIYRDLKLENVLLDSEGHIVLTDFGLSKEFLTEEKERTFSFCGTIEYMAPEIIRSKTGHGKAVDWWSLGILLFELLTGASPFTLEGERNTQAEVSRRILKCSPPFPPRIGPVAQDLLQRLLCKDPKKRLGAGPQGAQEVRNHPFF

## Cc1cc(Oc2cc(NC(=O)C3CC3)ncn2)ccc1NC(=O)Nc1ccc(Cl)c(C(F)(F)F)c1 [CBT-102]
MLK1
  remaining activity at 1 µM: 94%
CLK3
  remaining activity at 1 µM: 100%
PIK4CB
  remaining activity at 1 µM: 100%
PLK1
  remaining activity at 1 µM: 95%
PFTK1
  remaining activity at 1 µM: 34%
[1]
  remaining activity at 1 µM: 100%
AMPK-alpha1
  remaining activity at 1 µM: 98%
[2]
  remaining activity at 1 µM: 85%
SIK2
  remaining activity at 1 µM: 100%
ABL2
  remaining activity at 1 µM: 40%
NEK5
  remaining activity at 1 µM: 96%
PRKG2
  remaining activity at 1 µM: 91%
EGFR (T790M)
  remaining activity at 1 µM: 94%
[3]
  remaining activity at 1 µM: 92%
[4]
  remaining activity at 1 µM: 100%
GRK7
  remaining activity at 1 µM: 100%
p38-delta
  remaining activity at 1 µM: 8.6%
TTK
  remaining activity at 1 µM: 61%
EIF2AK1
  remaining activity at 1 µM: 99%
KIT-autoinhibited
  remaining activity at 1 µM: 58%
LYN
  remaining activity at 1 µM: 20%
BRSK1
  remaining activity at 1 µM: 95%
SBK1
  remaining activity at 1 µM: 92%
ZAK
  remaining activity at 1 µM: 5.5%
SRC
  remaining activity at 1 µM: 76%
MARK1
  remaining activity at 1 µM: 100%
HIPK2
  remaining activity at 1 µM: 90%
CTK
  remaining activity at 1 µM: 74%
[5]
  effect on T cell surface marker CD4 (IHC): no significant effect
VRK2
  remaining activity at 1 µM: 100%
ADCK4
  remaining activity at 1 µM: 88%
MELK
  remaining activity at 1 µM: 84%
BUB1
  remaining activity at 1 µM: 100%
MKNK1
  remaining activity at 1 µM: 100%
CSNK1G3
  remaining activity at 1 µM: 96%
TEC
  remaining activity at 1 µM: 92%
FLT1
  remaining activity at 1 µM: 0.8%
[6]
  remaining activity at 1 µM: 73%
